How the values were obtained:
[1] = tested on: Corn Earworm (CEW) (Helicoverpa zea); experiment: Bioassay on corn earworm (CEW), 128-well diet tray assay; assay type: in vivo; conditions: Helicoverpa zea; Corn earworm, 50 μg/cm^2; read-out: % Mortality CEW 50 μg/cm^2
Summary of the method: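 Second-instar Helicoverpa zea larvae (one to five per well) placed on artificial diet treated with 50 μg/cm^2 compound in 90:10 acetone-water, dried, eight wells per compound. Held at 25 °C, 14:10 light-dark, five to seven days; percent mortality averaged over wells.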

[2] = tested on: Beet Armyworm (BAW) (Spodoptera exigua); experiment: Bioassay on beet armyworm (BAW), 128-well diet tray assay; assay type: in vivo; conditions: Spodoptera exigua; Beet armyworm, 50 μg/cm^2; read-out: % Mortality BAW 50 μg/cm^2
Summary of the method: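 Second-instar Spodoptera exigua larvae, one to five per well, on artificial diet treated with 50 μg/cm^2 compound in 90:10 acetone-water and dried, eight wells per compound. Held at 25 °C, 14:10 light-dark for five to seven days; percent mortality averaged over wells.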

| Compound | pest or weed control at 50 µg/cm2, 50 µg/cm2 [1] [%] | pest or weed control at 50 µg/cm2, 50 µg/cm2 [2] [%] |
| --- | --- | --- |
| CC1CCS/C(=N\N=C\c2ccc(-c3ncn(-c4ccc(OC(F)(F)F)cc4)n3)cc2)N1c1ccccc1OC(F)(F)F (centres unmarked) [Compound 216C] | 50 to 100 | 50 to 100 |
| CC1CCS/C(=N\N=C\c2ccc(-c3ncn(-c4ccc(OC(F)(F)F)cc4)n3)cc2)N1c1c(Cl)cccc1C(F)(F)F (centres unmarked) [Compound 217C] | 50 to 100 | 50 to 100 |
| Cc1cc(C)c(N2/C(=N/N=C/c3ccc(-c4ncn(-c5ccc(OC(F)(F)F)cc5)n4)cc3)SCCC2C)c(C)c1 (centres unmarked) [Compound 218C] | 50 to 100 | 50 to 100 |
| COc1ccc(N2/C(=N/N=C/c3ccc(-c4ncn(-c5ccc(OC(F)(F)F)cc5)n4)cc3)SCCC2C)c(C)c1 (centres unmarked) [Compound 219C] | 50 to 100 | 50 to 100 |
| CCC(C)c1ccccc1N1/C(=N/N=C/c2ccc(-c3ncn(-c4ccc(OC(F)(F)F)cc4)n3)cc2)SCCC1C (centres unmarked) [Compound 220C] | 50 to 100 | 50 to 100 |
| CC1CCS/C(=N\N=C\c2ccc(-c3ncn(-c4ccc(OC(F)(F)F)cc4)n3)cc2)N1c1ccccc1OC(F)F (centres unmarked) [Compound 221C] | 50 to 100 | 50 to 100 |
| CC1CCS/C(=N\N=C\c2ccc(-c3ncn(-c4ccc(OC(F)(F)F)cc4)n3)cc2)N1c1ccccc1C(C)(C)C (centres unmarked) [Compound 222C] | 50 to 100 | 50 to 100 |
| Cc1cccc(C)c1N1C(=O)CCS/C1=N\N=C\c1ccc(-c2ncn(-c3ccc(OC(F)(F)F)cc3)n2)cc1 [Compound 223C] | 50 to 100 | 50 to 100 |
| CCc1cccc(C)c1N1C(=O)CCS/C1=N\N=C\c1ccc(-c2ncn(-c3ccc(OC(F)(F)F)cc3)n2)cc1 [Compound 225C] | 50 to 100 | 50 to 100 |
| O=C1CCS/C(=N\N=C\c2ccc(-c3ncn(-c4ccc(OC(F)(F)F)cc4)n3)cc2)N1c1c(F)cccc1F [Compound 226C] | 50 to 100 | 50 to 100 |
| Cc1cccc(Cl)c1N1C(=O)CCS/C1=N\N=C\c1ccc(-c2ncn(-c3ccc(OC(F)(F)F)cc3)n2)cc1 [Compound 227C] | 50 to 100 | 50 to 100 |
| O=C1CCS/C(=N\N=C\c2ccc(-c3ncn(-c4ccc(OC(F)(F)F)cc4)n3)cc2)N1c1c(Cl)cccc1C(F)(F)F [Compound 228C] | 50 to 100 | 50 to 100 |
| CC(F)(F)Oc1ccccc1N1C(=O)CCS/C1=N\N=C\c1ccc(-c2ncn(-c3ccc(OC(F)(F)F)cc3)n2)cc1 [Compound 229C] | 50 to 100 | 50 to 100 |
| CCC(C)c1ccccc1N1C(=O)CCS/C1=N\N=C\c1ccc(-c2ncn(-c3ccc(OC(F)(F)F)cc3)n2)cc1 (centres unmarked) [Compound 230C] | 50 to 100 | 50 to 100 |
| COc1ccc(N2C(=O)CCS/C2=N\N=C\c2ccc(-c3ncn(-c4ccc(OC(F)(F)F)cc4)n3)cc2)c(C)c1 [Compound 231C] | 50 to 100 | 50 to 100 |
| CC(C)(C)c1ccccc1N1C(=O)CCS/C1=N\N=C\c1ccc(-c2ncn(-c3ccc(OC(F)(F)F)cc3)n2)cc1 [Compound 232C] | 50 to 100 | 50 to 100 |
| O=C1CCS/C(=N\N=C\c2ccc(-c3ncn(-c4ccc(OC(F)(F)F)cc4)n3)cc2)N1c1ccccc1OC(F)F [Compound 233C] | 50 to 100 | 50 to 100 |
| Cc1cccc(C(C)C)c1N1C(=O)CS/C1=N\N=C\c1ccc(-c2ncn(-c3ccc(OC(F)(F)F)cc3)n2)cc1 [Compound 238C] | 50 to 100 | 50 to 100 |
| CC(C)c1ccccc1N1CS/C1=N\N=C\c1ccc(-c2ncn(-c3ccc(OC(F)(F)F)cc3)n2)cc1 [Compound 240C] | 50 to 100 | 50 to 100 |
| Cc1cccc(C)c1N1CS/C1=N\N=C\c1ccc(-c2ncn(-c3ccc(OC(F)(F)F)cc3)n2)cc1 [Compound 241C] | 50 to 100 | 50 to 100 |

| Compound | pest or weed control at 50 µg/cm2, 50 µg/cm2 [1] [%] | pest or weed control at 50 µg/cm2, 50 µg/cm2 [2] [%] |
| --- | --- | --- |
| COc1cc(C)c(N2CS/C2=N\N=C\c2ccc(-c3ncn(-c4ccc(OC(F)(F)F)cc4)n3)cc2)c(C)c1 [Compound 242C] | 50 to 100 | 50 to 100 |
| CCc1cccc(C)c1N1CS/C1=N\N=C\c1ccc(-c2ncn(-c3ccc(OC(F)(F)F)cc3)n2)cc1 [Compound 243C] | 50 to 100 | 50 to 100 |
| FC(F)(F)Oc1ccc(-n2cnc(-c3ccc(/C=N/N=C4\SCN4c4c(Cl)cccc4Cl)cc3)n2)cc1 [Compound 244C] | 50 to 100 | 50 to 100 |
| Fc1cccc(F)c1N1CS/C1=N\N=C\c1ccc(-c2ncn(-c3ccc(OC(F)(F)F)cc3)n2)cc1 [Compound 245C] | 50 to 100 | 50 to 100 |
| Cc1cccc(Cl)c1N1CS/C1=N\N=C\c1ccc(-c2ncn(-c3ccc(OC(F)(F)F)cc3)n2)cc1 [Compound 246C] | 50 to 100 | 50 to 100 |
| CC(C)c1ccccc1N1CS/C1=N\N=C\c1ccc(-c2ncn(-c3ccc(OC(F)(F)C(F)(F)F)cc3)n2)cc1 [Compound 247C] | 50 to 100 | 50 to 100 |
| C/C(=N\N=C1/SCN1c1ccccc1C(C)C)c1ccc(-c2ncn(-c3ccc(OC(F)(F)F)cc3)n2)cc1 [Compound 248C] | 50 to 100 | 50 to 100 |
| CC(C)c1ccccc1N1CS/C1=N\N=C\c1ccc(-c2ncn(-c3ccc4c(c3)OC(F)(F)O4)n2)cc1 [Compound 249C] | 50 to 100 | 50 to 100 |
| CC(C)c1cccc(F)c1N1CS/C1=N\N=C\c1ccc(-c2ncn(-c3ccc(OC(F)(F)F)cc3)n2)cc1 [Compound 250C] | 50 to 100 | 50 to 100 |
| CC(C)c1ccc(F)cc1N1CS/C1=N\N=C\c1ccc(-c2ncn(-c3ccc(OC(F)(F)F)cc3)n2)cc1 [Compound 251C] | 50 to 100 | 50 to 100 |
| CC(C)c1cc(F)ccc1N1CS/C1=N\N=C\c1ccc(-c2ncn(-c3ccc(OC(F)(F)F)cc3)n2)cc1 [Compound 252C] | 50 to 100 | 50 to 100 |
| CC(C)c1c(F)cccc1N1CS/C1=N\N=C\c1ccc(-c2ncn(-c3ccc(OC(F)(F)F)cc3)n2)cc1 [Compound 253C] | 50 to 100 | 50 to 100 |
| CCc1ccccc1N1CS/C1=N\N=C\c1ccc(-c2ncn(-c3ccc(OC(F)(F)F)cc3)n2)cc1 [Compound 254C] | 50 to 100 | 50 to 100 |
| CC(C)c1ccc(F)cc1N1CS/C1=N\N=C\c1ccc(-c2ncn(-c3ccc(C(F)(F)F)cc3)n2)cc1 [Compound 255C] | 50 to 100 | 50 to 100 |
| CC(C)c1ccc(F)cc1N1CS/C1=N\N=C\c1ccc(-c2ncn(-c3ccc(OC(F)(F)C(F)(F)F)cc3)n2)cc1 [Compound 256C] | 50 to 100 | 50 to 100 |
| CC(C)c1ccc(F)cc1N1CS/C1=N\N=C\c1ccc(-c2ncn(-c3ccc(C(F)(C(F)(F)F)C(F)(F)F)cc3)n2)cc1 [Compound 257C] | 50 to 100 | 50 to 100 |
| CC(C)c1ccc(F)cc1N1CS/C1=N\N=C\c1ccc(-c2ncn(-c3ccc(C(F)(C(F)(F)F)C(F)(F)C(F)(F)F)cc3)n2)cc1 (centres unmarked) [Compound 258C] | 50 to 100 | 0 to 50 |
| CC(C)c1ccc(F)cc1N1CS/C1=N\N=C\c1ccc(-c2ncn(-c3ccc(C(C)(F)F)cc3)n2)cc1 [Compound 259C] | 50 to 100 | 50 to 100 |
| CC(C)c1ccc(F)cc1N1CS/C1=N\N=C\c1ccc(-c2ncn(-c3ccc(C(F)(F)C(F)(F)F)cc3)n2)cc1 [Compound 260C] | 50 to 100 | 50 to 100 |
| CC(C)c1cc(F)ccc1N1CS/C1=N\N=C\c1ccc(-c2ncn(-c3ccc(C(F)(F)F)cc3)n2)cc1 [Compound 261C] | 50 to 100 | 50 to 100 |

— patent publication US9018388B2, “Pesticidal compositions and processes related thereto” (Dow AgroSciences LLC, priority 2012, dated 2015)
